ChEMBL document CHEMBL3046822, “Synthesis, antiplatelet aggregation activity, and molecular modeling study of novel substituted-piperazine analogues” (2011)
Calls of active or inactive are those of the source. The calls are words filed in the database; no cut-off is given here.

Tests used:
[1] = Antiaggregating activity in Homo sapiens (human) platelet rich plasma assessed as arachidonic acid-induced platelet aggregation at 1 uM incubated for 4 min prior to arachidonic acid-induction measured for 5.5 min by turbidometric analysis (reference value: 55 to 100%); type: functional
[2] = Antiaggregating activity in Homo sapiens (human) platelet rich plasma assessed as ristocetin-induced platelet aggregation at 2 uM incubated for 4 min prior to ristocetin-induction measured for 5.5 min by turbidometric analysis (reference value: 65 to 99%); type: functional
[3] = Antiaggregating activity in Homo sapiens (human) platelet rich plasma assessed as ADP-induced platelet aggregation at 1 uM incubated for 4 min prior to ADP-induction measured for 5.5 min by turbidometric analysis (reference value: 54 to 88%); type: functional
Platelet [4] = assay: Antiaggregating activity in Homo sapiens (human) platelet rich plasma assessed as inhibition of collagen-induced platelet aggregation at 5 uM incubated for 4 min prior to collagen-induction measured for 5.5 min by turbidometric analysis; type: functional, cell-free
[5] = Antiaggregating activity in Homo sapiens (human) platelet rich plasma assessed as collagen-induced platelet aggregation at 2 uM incubated for 4 min prior to collagen-induction measured for 5.5 min by turbidometric analysis (reference value: 50 to 98%); type: functional
[6] = Antiaggregating activity in Homo sapiens (human) platelet rich plasma assessed as ristocetin-induced platelet aggregation at 5 uM incubated for 4 min prior to ristocetin-induction measured for 5.5 min by turbidometric analysis (reference value: 65 to 99%); type: functional
[7] = Antiaggregating activity in Homo sapiens (human) platelet rich plasma assessed as adrenaline-induced platelet aggregation at 1 uM incubated for 4 min prior to adrenaline-induction measured for 5.5 min by turbidometric analysis (reference value: 65 to 100%); type: functional
[8] = Antiaggregating activity in Homo sapiens (human) platelet rich plasma assessed as ristocetin-induced platelet aggregation at 1 uM incubated for 4 min prior to ristocetin-induction measured for 5.5 min by turbidometric analysis (reference value: 65 to 99%); type: functional
[9] = Antiaggregating activity in Homo sapiens (human) platelet rich plasma assessed as disaggregation of ADP-induced platelet aggregation at 5 uM incubated for 4 min prior to ADP-induction measured for 5.5 min by turbidometric analysis relative to control; type: functional
[10] = Antiaggregating activity in Homo sapiens (human) platelet rich plasma assessed as ADP-induced platelet aggregation at 2 uM incubated for 4 min prior to ADP-induction measured for 5.5 min by turbidometric analysis (reference value: 54 to 88%); type: functional
[11] = Antiaggregating activity in Homo sapiens (human) platelet rich plasma assessed as collagen-induced platelet aggregation at 1 uM incubated for 4 min prior to collagen-induction measured for 5.5 min by turbidometric analysis (reference value: 50 to 98%); type: functional
[12] = Antiaggregating activity in Homo sapiens (human) platelet rich plasma assessed as disaggregation of arachidonic acid-induced platelet aggregation at 2 uM incubated for 4 min prior to arachidonic acid-induction measured for 5.5 min by turbidometric analysis relative to control; type: functional
Platelet [13] = assay: Antiaggregating activity in Homo sapiens (human) platelet rich plasma assessed as inhibition of arachidonic acid-induced platelet aggregation at 5 uM incubated for 4 min prior to arachidonic acid-induction measured for 5.5 min by turbidometric analysis; type: functional, cell-free
[14] = Antiaggregating activity in Homo sapiens (human) platelet rich plasma assessed as adrenaline-induced platelet aggregation at 2 uM incubated for 4 min prior to adrenaline-induction measured for 5.5 min by turbidometric analysis (reference value: 65 to 100%); type: functional
Platelet [15] = assay: Antiaggregating activity in Homo sapiens (human) platelet rich plasma assessed as inhibition of adrenaline-induced platelet aggregation at 5 uM incubated for 4 min prior to adrenaline-induction measured for 5.5 min by turbidometric analysis; type: functional, cell-free
[16] = Antiaggregating activity in Homo sapiens (human) platelet rich plasma assessed as collagen-induced platelet aggregation at 0.1 uM incubated for 4 min prior to collagen-induction measured for 5.5 min by turbidometric analysis (reference value: 50 to 98%); type: functional
Platelet [17] = assay: Antiaggregating activity in Homo sapiens (human) platelet rich plasma assessed as inhibition of adrenaline-induced platelet aggregation at 0.1 uM incubated for 4 min prior to adrenaline-induction measured for 5.5 min by turbidometric analysis; type: functional, cell-free
[18] = Antiaggregating activity in Homo sapiens (human) platelet rich plasma assessed as ADP-induced platelet aggregation at 0.1 uM incubated for 4 min prior to ADP-induction measured for 5.5 min by turbidometric analysis (reference value: 54 to 88%); type: functional
[19] = Antiaggregating activity in Homo sapiens (human) platelet rich plasma assessed as ADP-induced platelet aggregation at 0.5 uM incubated for 4 min prior to ADP-induction measured for 5.5 min by turbidometric analysis (reference value: 54 to 88%); type: functional
[20] = Antiaggregating activity in Homo sapiens (human) platelet rich plasma assessed as ristocetin-induced platelet aggregation at 0.1 uM incubated for 4 min prior to ristocetin-induction measured for 5.5 min by turbidometric analysis (reference value: 65 to 99%); type: functional
Platelet [21] = assay: Antiaggregating activity in Homo sapiens (human) platelet rich plasma assessed as inhibition of ristocetin-induced platelet aggregation at 2 uM incubated for 4 min prior to ristocetin-induction measured for 5.5 min by turbidometric analysis; type: functional, cell-free
[22] = Antiaggregating activity in Homo sapiens (human) platelet rich plasma assessed as ristocetin-induced platelet aggregation at 0.8 uM incubated for 4 min prior to ristocetin-induction measured for 5.5 min by turbidometric analysis (reference value: 65 to 99%); type: functional
[23] = Antiaggregating activity in Homo sapiens (human) platelet rich plasma assessed as arachidonic acid-induced platelet aggregation at 0.1 uM incubated for 4 min prior to arachidonic acid-induction measured for 5.5 min by turbidometric analysis (reference value: 55 to 100%); type: functional
Platelet [24] = assay: Antiaggregating activity in Homo sapiens (human) platelet rich plasma assessed as inhibition of ADP-induced platelet aggregation at 2 uM incubated for 4 min prior to ADP-induction measured for 5.5 min by turbidometric analysis; type: functional, cell-free
Platelet [25] = assay: Antiaggregating activity in Homo sapiens (human) platelet rich plasma assessed as inhibition of arachidonic acid-induced platelet aggregation at 2 uM incubated for 4 min prior to arachidonic acid-induction measured for 5.5 min by turbidometric analysis; type: functional, cell-free
Platelet [26] = assay: Antiaggregating activity in Homo sapiens (human) platelet rich plasma assessed as inhibition of collagen-induced platelet aggregation at 0.8 uM incubated for 4 min prior to collagen-induction measured for 5.5 min by turbidometric analysis; type: functional, cell-free
[27] = Antiaggregating activity in Homo sapiens (human) platelet rich plasma assessed as collagen-induced platelet aggregation at 0.5 uM incubated for 4 min prior to collagen-induction measured for 5.5 min by turbidometric analysis (reference value: 50 to 98%); type: functional
[28] = Antiaggregating activity in Homo sapiens (human) platelet rich plasma assessed as ristocetin-induced platelet aggregation at 0.5 uM incubated for 4 min prior to ristocetin-induction measured for 5.5 min by turbidometric analysis (reference value: 65 to 99%); type: functional
Platelet [29] = assay: Antiaggregating activity in Homo sapiens (human) platelet rich plasma assessed as inhibition of collagen-induced platelet aggregation at 1 uM incubated for 4 min prior to collagen-induction measured for 5.5 min by turbidometric analysis; type: functional, cell-free
Platelet [30] = assay: Antiaggregating activity in Homo sapiens (human) platelet rich plasma assessed as inhibition of adrenaline-induced platelet aggregation at 0.5 uM incubated for 4 min prior to adrenaline-induction measured for 5.5 min by turbidometric analysis; type: functional, cell-free
[31] = Antiaggregating activity in Homo sapiens (human) platelet rich plasma assessed as arachidonic acid-induced platelet aggregation at 0.5 uM incubated for 4 min prior to arachidonic acid-induction measured for 5.5 min by turbidometric analysis (reference value: 55 to 100%); type: functional
Platelet [32] = assay: Antiaggregating activity in Homo sapiens (human) platelet rich plasma assessed as inhibition of adrenaline-induced platelet aggregation at 1 uM incubated for 4 min prior to adrenaline-induction measured for 5.5 min by turbidometric analysis; type: functional, cell-free
Platelet [33] = assay: Antiaggregating activity in Homo sapiens (human) platelet rich plasma assessed as inhibition of arachidonic acid-induced platelet aggregation at 0.8 uM incubated for 4 min prior to arachidonic acid-induction measured for 5.5 min by turbidometric analysis; type: functional, cell-free
Platelet [34] = assay: Antiaggregating activity in Homo sapiens (human) platelet rich plasma assessed as inhibition of adrenaline-induced platelet aggregation at 2 uM incubated for 4 min prior to adrenaline-induction measured for 5.5 min by turbidometric analysis; type: functional, cell-free
Platelet [35] = assay: Antiaggregating activity in Homo sapiens (human) platelet rich plasma assessed as inhibition of ADP-induced platelet aggregation at 1 uM incubated for 4 min prior to ADP-induction measured for 5.5 min by turbidometric analysis; type: functional, cell-free
Platelet [36] = assay: Antiaggregating activity in Homo sapiens (human) platelet rich plasma assessed as inhibition of collagen-induced platelet aggregation at 2 uM incubated for 4 min prior to collagen-induction measured for 5.5 min by turbidometric analysis; type: functional, cell-free
Platelet [37] = assay: Antiaggregating activity in Homo sapiens (human) platelet rich plasma assessed as inhibition of arachidonic acid-induced platelet aggregation at 1 uM incubated for 4 min prior to arachidonic acid-induction measured for 5.5 min by turbidometric analysis; type: functional, cell-free
Platelet [38] = assay: Antiaggregating activity in Homo sapiens (human) platelet rich plasma assessed as inhibition of adrenaline-induced platelet aggregation at 0.8 uM incubated for 4 min prior to adrenaline-induction measured for 5.5 min by turbidometric analysis; type: functional, cell-free
Platelet [39] = assay: Antiaggregating activity in Homo sapiens (human) platelet rich plasma assessed as inhibition of ADP-induced platelet aggregation at 0.8 uM incubated for 4 min prior to ADP-induction measured for 5.5 min by turbidometric analysis; type: functional, cell-free
[40] = Antiaggregating activity in Homo sapiens (human) platelet rich plasma assessed as arachidonic acid-induced platelet aggregation at 10 uM incubated for 4 min prior to arachidonic acid-induction measured for 5.5 min by turbidometric analysis (reference value: 55 to 100%); type: functional
Platelet [41] = assay: Antiaggregating activity in Homo sapiens (human) platelet rich plasma assessed as inhibition of adrenaline-induced platelet aggregation at 50 uM incubated for 4 min prior to adrenaline-induction measured for 5.5 min by turbidometric analysis; type: functional, cell-free
Platelet [42] = assay: Antiaggregating activity in Homo sapiens (human) platelet rich plasma assessed as inhibition of arachidonic acid-induced platelet aggregation at 50 uM incubated for 4 min prior to arachidonic acid-induction measured for 5.5 min by turbidometric analysis; type: functional, cell-free
[43] = Antiaggregating activity in Homo sapiens (human) platelet rich plasma assessed as ristocetin-induced platelet aggregation at 10 uM incubated for 4 min prior to ristocetin-induction measured for 5.5 min by turbidometric analysis (reference value: 65 to 99%); type: functional
[44] = Antiaggregating activity in Homo sapiens (human) platelet rich plasma assessed as ADP-induced platelet aggregation at 10 uM incubated for 4 min prior to ADP-induction measured for 5.5 min by turbidometric analysis (reference value: 54 to 88%); type: functional
Platelet [45] = assay: Antiaggregating activity in Homo sapiens (human) platelet rich plasma assessed as inhibition of ADP-induced platelet aggregation at 50 uM incubated for 4 min prior to ADP-induction measured for 5.5 min by turbidometric analysis; type: functional, cell-free
[46] = Antiaggregating activity in Homo sapiens (human) platelet rich plasma assessed as collagen-induced platelet aggregation at 10 uM incubated for 4 min prior to collagen-induction measured for 5.5 min by turbidometric analysis (reference value: 50 to 98%); type: functional
[47] = Antiaggregating activity in Homo sapiens (human) platelet rich plasma assessed as ristocetin-induced platelet aggregation at 50 uM incubated for 4 min prior to ristocetin-induction measured for 5.5 min by turbidometric analysis (reference value: 65 to 99%); type: functional
[48] = Antiaggregating activity in Homo sapiens (human) platelet rich plasma assessed as adrenaline-induced platelet aggregation at 10 uM incubated for 4 min prior to adrenaline-induction measured for 5.5 min by turbidometric analysis (reference value: 65 to 100%); type: functional
Platelet [49] = assay: Antiaggregating activity in Homo sapiens (human) platelet rich plasma assessed as inhibition of collagen-induced platelet aggregation at 50 uM incubated for 4 min prior to collagen-induction measured for 5.5 min by turbidometric analysis; type: functional, cell-free

O=C(c1ccc[n+](Cc2ccc(C[n+]3cccc(C(=O)N4CCN(c5ccccc5Cl)CC4)c3)cc2)c1)N1CCN(c2ccccc2Cl)CC1.[Br-].[Br-]
Activity [1]: 40% | Activity [2]: 65% | Activity [3]: 91% | inhibition (Platelet [4]): Active | Activity [5]: 26% | Activity [6]: 51% | Activity [7]: 22% | Activity [8]: 78% | Activity [9]: 13% | Activity [10]: 79% | Activity [11]: 84% | Activity [12]: 16% | inhibition (Platelet [13]): Active | Activity [14]: 21% | inhibition (Platelet [15]): Active

COc1cc(C(=O)N2CCCC(C(=O)N3CCN(c4ncccn4)CC3)C2)cc(OC)c1OC.Cl (stereo not given)
Activity [16]: 67% | inhibition (Platelet [17]): Active | Activity [18]: 72% | Activity [19]: 50% | Activity [20]: 77% | inhibition (Platelet [21]): Active | Activity [22]: 55% | Activity [23]: 76% | inhibition (Platelet [24]): Active | inhibition (Platelet [25]): Active | inhibition (Platelet [26]): Active | Activity [8]: 75% | Activity [27]: 78% | Activity [28]: 68% | inhibition (Platelet [29]): Active | inhibition (Platelet [30]): Active | Activity [31]: 54% | inhibition (Platelet [32]): Active | inhibition (Platelet [33]): Active | inhibition (Platelet [34]): Active | inhibition (Platelet [35]): Active | inhibition (Platelet [36]): Active | inhibition (Platelet [37]): Active | inhibition (Platelet [38]): Active | inhibition (Platelet [39]): Active

O=C(c1ccc[n+](Cc2ccc(C[n+]3cccc(C(=O)N4CCN(c5ncccn5)CC4)c3)cc2)c1)N1CCN(c2ncccn2)CC1.[Br-].[Br-]
Activity [1]: 70% | Activity [40]: 71% | inhibition (Platelet [41]): Active | inhibition (Platelet [42]): Active | Activity [43]: 82% | Activity [3]: 70% | Activity [44]: 71% | Activity [7]: 73% | inhibition (Platelet [45]): Active | Activity [8]: 78% | Activity [46]: 82% | Activity [47]: 73% | Activity [48]: 28% | inhibition (Platelet [49]): Active | Activity [11]: 73%
